Measurements: patent US20120040951A1, “HETEROARYL COMPOUNDS USEFUL AS RAF KINASE INHIBITORS” (priority 2008, published 2012)

System: phospho-ERK in melanoma derived WM-266-4 cells
Assay: Mechanistic cellular assay for Raf kinase activity (phospho-ERK, Bio-Plex)
Assay type: cell-based
Conditions: Homo sapiens, treated 1-2 hr at 37° C., serum free medium, read-out: pERK EC50
Source text: (2) Mechanistic Cellular Assay for Raf Kinase Activity
The following method was utilized for quantifying the amount of phospho-ERK in melanoma derived WM-266-4 cells (one allele each of wild type BRaf and mutant BRaf (V600D) as an indicator of Raf kinase activity in cells treated with various kinase inhibitors.
(1) Detached adhered WM-266-4 cells from flask using 0.25% Trypsin. Resuspended cells in growth media (90% RPMI 1640, 10% FBS) and determine cell density.
(2) Seeded cells @ 10,000 cells/well in 96-well (flat bottom) tissue culture plates (36,000 cells/cm^2). Added growth media to a final volume of 200 uL/well and incubated overnight at 37° C.
(1) Prepared compound dilutions (1000× in DMSO) as follows. Starting with a stock of 5 mM compound in DMSO, diluted serially 3-fold in DMSO for a total of eight concentrations (5 mM, 1.67 mM, 0.556 mM, 0.185 mM, 0.062 mM, 0.021 mM, 0.007 mM, 0.002 mM).
(2) Prepared compound-containing media by adding 1 mL treatment media (100% RPMI 1640 without FBS) to 1 μL of compound dilution (from step 3).
(3) Removed plates (from step 2) from incubator. Aspirated media and replace with 150 μL compound-containing media. Incubate for 1-2 hr at 37° C.
(4) Removed plates (from step 5) from incubator and treated each as follows: aspirated compound-containing media and replaced with 300 μL ice-cold 1×PBS, aspirated PBS and replaced with 45 μL lysis buffer (Biorad Bio-Plex lysis buffer containing 0.4% v/v lysis buff. Factor 1, 0.2% v/v lysis buff. Factor 2, and PMSF to 2 mM final concentration), and then placed plate on ice until all plates were treated.
(5) After all plates were processed (step 6), placed plates on an orbital shaker and shook at room temperature for at least 15 min.
(6) Finally, removed plates from shaker, and transfered 40 μL/well of lysate from each to new corresponding 96-well V-bottom plates. At this point, samples may be frozen and stored @−80 C.°.
(1) Thaw (if necessary) plates (from step 8) and added 40 μL of Phospho-Protein Assay Buffer to each 40 μL lysate for a 1:1 dilution.
(2) Prepared phospho-ERK1,2 Bioplex beads by diluting 1:50 with Bioplex Wash Buffer (mixing 49 μL Wash Buffer with 1 μL of phospho-ERK1,2 Bioplex beads for each sample to be analyzed). Protected from light by wrapping tube in aluminum foil and kept at room temperature.
(3) Prepared Filter Plate by adding 100 μL/well Bioplex Wash Buffer and removed by vacuum filtration.
(4) Add 50 μL of bead solution (from step 10) to each well of a prepared Filter Plate (from step 11) and vacuum filter. Wash/filter 2× with 100 μL/well Wash Buffer.
(5) Added 50 μL of each lysate to appropriate well of the Filter Plate (from step 12). For this and all subsequent plate incubation steps, placed plate on an inverted plate cover (reduces background), and wrapped in aluminum foil (to protect from light). Shook overnight at room temperature. Included positive (control lysate) and negative (lysis buffer) controls.
(1) Prepared detection antibody (phospho-ERK1,2 Ab) by diluting 1:25 with Detection Antibody Dilution Buffer Buffer (mixing 24 μL Detection Antibody Dilution Buffer with 1 μL of phospho-ERK1,2 Ab for each sample to be analyzed).
(2) Removed plate (from step 13) from shaker and vacuum filter. Washed/filter plate 3× with 100 μL/well Wash Buffer. Added 25 μL of diluted antibody to each well. Incubated on shaker at RT for 30-45 min.
(3) Prepared streptavidin-PE by diluting 1:100 with Wash Buffer (mixing 49.5 μL Wash Buffer with 0.5 μL of 100× streptavidin-PE for each sample to be analyzed). Protected from light.
(4) Removed plate (from step 15) from shaker and vacuum filter. Washed/filter plate 3× with 100 μL/well Wash Buffer. Add 50 μL of diluted streptavidin-PE solution (from step 16) to each sample well. Incubated on shaker for 10-20 min.
(5) Removed plate from shaker and vacuum filter. Wash/filter plate 3× with 100 μL/well Bead Resuspension Buffer. After last wash resuspended beads in 125 μL Bead Resuspension Buffer. […]

Compound	EC50
C[C@H](NC(=O)c1cc2c(cn1)ncn2C)c1cnc(Nc2ccc(C(F)(F)F)cc2)cn1 (single isomer, unassigned) [Example 36]	1000 to 10000 nM
C[C@@H](NC(=O)c1cc2c(cn1)ncn2C)c1cnc(Nc2ccc(Cl)c(C(F)(F)F)c2)cn1 (single isomer, unassigned) [Example 236]	≤ 100 nM
C[C@H](NC(=O)c1cc2c(cn1)ncn2C)c1cnc(Nc2ccc(Cl)c(C(F)(F)F)c2)cn1 (single isomer, unassigned) [Example 237]	1000 to 10000 nM
CC(NC(=O)c1cc2c(cn1)ncn2CCN1CCOCC1)c1cnc(Nc2ccc(C(F)(F)F)cc2)s1 (stereo not shown) [Example 8]	≤ 100 nM
CC(NC(=O)c1cc2c(cn1)ncn2C1CCOCC1)c1cnc(Nc2ccc(C(F)(F)F)cc2)s1 (stereo not shown) [Example 9]	≤ 100 nM
Cc1nc2cnc(C(=O)NC(C)c3cnc(Nc4ccc(C(F)(F)F)cc4)s3)cc2n1C (stereo not shown) [Example 10]	100 to 1000 nM
CC(NC(=O)c1cc2c(cn1)ncn2C1CCN(C)CC1)c1cnc(Nc2ccc(C(F)(F)F)cc2)s1 (stereo not shown) [Example 11]	100 to 1000 nM
CC(NC(=O)c1cc2c(cn1)ncn2C(C)C)c1cnc(Nc2ccc(C(F)(F)F)cc2)s1 (stereo not shown) [Example 12]	≤ 100 nM
CC(NC(=O)c1cc2c(cn1)ncn2C(C)(C)C)c1cnc(Nc2ccc(C(F)(F)F)cc2)s1 (stereo not shown) [Example 13]	≤ 100 nM
CC(NC(=O)c1cc2c(cn1)ncn2C1CCC1)c1cnc(Nc2ccc(C(F)(F)F)cc2)s1 (stereo not shown) [Example 14]	≤ 100 nM
CC(C)Cn1cnc2cnc(C(=O)NC(C)c3cnc(Nc4ccc(C(F)(F)F)cc4)s3)cc21 (stereo not shown) [Example 15]	≤ 100 nM
CC(NC(=O)c1cc2c(cn1)ncn2CC(C)(C)C)c1cnc(Nc2ccc(C(F)(F)F)cc2)s1 (stereo not shown) [Example 16]	100 to 1000 nM
CC(NC(=O)c1cc2c(cn1)ncn2C1CCCC1)c1cnc(Nc2ccc(C(F)(F)F)cc2)s1 (stereo not shown) [Example 17]	≤ 100 nM
CC(NC(=O)c1cc2c(cn1)ncn2C1CCCCC1)c1cnc(Nc2ccc(C(F)(F)F)cc2)s1 (stereo not shown) [Example 18]	100 to 1000 nM
CC(NC(=O)c1cc2c(cn1)ncn2C1CC1)c1cnc(Nc2ccc(C(F)(F)F)cc2)s1 (stereo not shown) [Example 19]	≤ 100 nM
CCn1cnc2cnc(C(=O)N[C@H](C)c3cnc(Nc4ccc(C(F)(F)F)cc4)s3)cc21 [Example 20]	≤ 100 nM
CC(NC(=O)c1cc2c(cn1)ncn2CCNC(=O)OC(C)(C)C)c1cnc(Nc2ccc(C(F)(F)F)cc2)s1 (stereo not shown) [Example 21]	100 to 1000 nM
C[C@@H](NC(=O)c1cc2c(cn1)ncn2[C@@H]1CCN(C(=O)OC(C)(C)C)C1)c1cnc(Nc2ccc(C(F)(F)F)cc2)s1 [Example 22]	100 to 1000 nM
CC(NC(=O)c1cc2c(cn1)ncn2CCN)c1cnc(Nc2ccc(C(F)(F)F)cc2)s1 (stereo not shown) [Example 23]	100 to 1000 nM
CCn1cnc2cnc(C(=O)NC(C)c3cnc(Nc4ccc(C(F)(F)F)cc4)cn3)cc21 (stereo not shown) [Example 38]	≤ 100 nM
C[C@@H](NC(=O)c1cc2nc[nH]c2cn1)c1ncc(C(=O)Nc2cc(C(F)(F)F)c(Cl)cn2)s1 [Example 39]	≤ 100 nM
CC(NC(=O)c1cc2c(cn1)ncn2C)c1ncc(C(=O)Nc2cc(C(F)(F)F)c(Cl)cn2)s1 (stereo not shown) [Example 40]	≤ 100 nM
CC(NC(=O)c1cccc(N2CCOCC2)c1)c1ncc(C(=O)Nc2cc(C(F)(F)F)c(Cl)cn2)s1 (stereo not shown) [Example 45]	1000 to 10000 nM
CC(NC(=O)c1cccc(CN2CCOCC2)c1)c1ncc(C(=O)Nc2cc(C(F)(F)F)c(Cl)cn2)s1 (stereo not shown) [Example 46]	1000 to 10000 nM
CC(NC(=O)c1cccc(-c2cccnc2)c1)c1ncc(C(=O)Nc2cc(C(F)(F)F)c(Cl)cn2)s1 (stereo not shown) [Example 47]	100 to 1000 nM
CC(NC(=O)c1cccc(-n2ccnc2)c1)c1ncc(C(=O)Nc2cc(C(F)(F)F)c(Cl)cn2)s1 (stereo not shown) [Example 48]	100 to 1000 nM
CC(NC(=O)c1cncc(Br)c1)c1ncc(C(=O)Nc2cc(C(F)(F)F)c(Cl)cn2)s1 (stereo not shown) [Example 50]	1000 to 10000 nM
C[C@@H](NC(=O)c1ccc2[nH]cnc2c1)c1ncc(C(=O)Nc2cc(C(F)(F)F)c(Cl)cn2)s1 [Example 53]	100 to 1000 nM
